{"source": "patent US20150165033A1", "about": "“COMPOSITION FOR NASAL APPLICATION” (BBU-VITA CORP., priority 2012, published 2015)", "key": {"[1]": {"system": "catalepsy caused by a single intraperitoneal injection of haloperidol", "test": "Spontaneous motor activity in the test \"Open Field\", catalepsy caused by haloperidol", "type": "in vivo", "settings": "sum of movements in Open Field; haloperidol 0.25 mg/kg i.p. alone; male rats", "experimental": "The restoration of spontaneous motor activity in rats as the sum of the movements in the test “Open Field” in the experimental model of a catalepsy caused by a single intraperitoneal (i.p.) injection of haloperidol (0.25 mg/kg, “Ratiopharm,” Germany). Dopamine (0.125 mg/kg, Polfa S.A. (Poland) was administered nasally in 50 μl in the solution of the spray once in each nostril in combination with the oxygen anion radicals (SAR) and/or the active substances of the nitrogen oxide according to the present invention (Group IV, “Composition 1”). The experiments were performed on non-purebred male rats having a body mass of 250±37 g."}, "duration of sleep": {"system": "duration of sleep", "test": "Narcotic action of phenobarbital, duration of sleep", "type": "in vivo", "settings": "phenobarbital control 150 mg/kg", "from_the_text": "The enhancement of the narcotic effect of the barbiturate phenobarbital in “Composition 3,” administered nasally."}}}
{"compound": "O=C(CCCN1CCC(O)(c2ccc(Cl)cc2)CC1)c1ccc(F)cc1", "note": "[Haloperidol, haloperidol]", "values": [{"measurement": "Spontaneous Activity", "setting": "[1]", "result": "3.6 ± 3.4"}]}
{"compound": "CCC1(c2ccccc2)C(=O)NC(=O)NC1=O", "note": "[Phenobarbital, phenobarbital]", "values": [{"measurement": "Duration of sleep", "setting": "duration of sleep", "result": "192 ± 29.9", "unit": "min"}]}
